Laboratory results as given in patent US9884065B2, “Inhibiting activity of senescent cells using a glucocorticoid” (Buck Institute for Research on Aging, priority 2011, dated 2018).

How the values were obtained:
NF-κB = NF-κB DNA binding activity in nuclear extracts (TransAM NF-κB p65 kit); format: cell-based, human; conditions: senescent cells; 500 nM corticosterone or 100 nM cortisol
Protocol: Nuclear extracts were prepared using the nuclear extract kit (Active Motif), and NF-κB DNA binding was determined using the TransAM NF-κB p65 kit (Active Motif). For transactivation assays, cells infected with the NF-κB reporter-luciferase lentivirus were lysed in buffer (Promega), and luciferase activity was normalized to cell number, as described (Freund et al., 2011, EMBO J. 30:1536-1548).

HCA2 human fibroblasts = conditions: 2.5 μM, 48 hours
Protocol: The initial drug screen was performed in a 96-well format using automated liquid handling with a Biomek FX (Beckman Coulter, CA). Senescent cells were plated 24 hours after X-irradiation at 7,500 cells per well in 96-well plates. Six days after plating the senescent cells, the pre-senescent cells were plated at 7,500 cells per well in 96-well plates. Twenty-four hours after pre-senescent plating, both pre-senescent and senescent cells were washed and incubated in low (0.2%) serum for 48 hours to arrest cell proliferation of the pre-senescent cells. Drugs from the Prestwick Chemical Library, which contains 1120 bio-available compounds in DMSO, were given to the cells at 2.5 μM in media containing 0.2% serum. Forty-eight hours after compound addition, the medium in each well was removed and frozen for assay by ELISA to quantitate the levels of IL-6. The cells, which remained in the wells after the medium was removed, were lysed and ATP levels were measured (ATPlite 1-step assay, Perkin Elmer, MA) to exclude compounds that lowered IL-6 through toxicity (cell death). Experimental wells in each plate were normalized to plate mean or same-plate DMSO controls for the ELISA and ATP assays, respectively.
To identify small molecules that may be potential SASP modulators, a screening strategy that entailed administering compounds to parallel 96-well plates containing human fibroblasts (strain HCA2) that were either quiescent or senescent was developed. The compounds tested comprised the Prestwick Chemical Library, a collection of approximately 1,120 Federal Drug Administration-approved drugs. The compounds were added to duplicate wells at a single concentration (2.5 μM). After 48 hours, the medium from each well was removed, and the cells were lysed. […] Cell lysates were assayed for ATP as a surrogate for cell number.

IL-6 [1] = test: IL-6 ELISA of conditioned media from X-irradiated senescent HCA2 fibroblasts; format: cell-based, human; conditions: for IL-6 secretion, varying concentrations: added immediately after irradiation, 6 days
Protocol: To validate glucocorticoids as SASP regulators, they were added within 15 min after irradiation (unless otherwise indicated). For cells induced to senesce by MKK6 or RAS overexpression, glucocorticoid treatment started 16 hours after infection. Glucocorticoids were re-added in fresh media every other day. Six days after irradiation or selection, cells were given serum-free DMEM with or without glucocorticoid for 24 hours; the conditioned media were collected and frozen for ELISAs.
Conditioned media were filtered and stored at −80° C. Cell numbers were determined in every experiment. ELISAs were performed using kits and procedures from PerkinElmer (IL-6 AL223F). Data were normalized and expressed as pg/ml/cell/24 h.
To confirm the ability of corticosterone to suppress senescence-associated IL-6 secretion, fresh HCA2 fibroblast cultures were prepared, and senescence was induced by X-irradiation (10 Gy). Under these conditions, cells undergo growth arrest within 24-48 hours, but require 4-5 days before SASP components are detected in the medium (Coppe et al., 2008, PLoS Biol. 6:2853-2868; Rodier et al., 2009, Nature Cell Biol. 11:973-979; Coppe et al., 2010, PLoS ONE 5:e9188; Freund et al., 2011, EMBO J. 30:1536-1548). Varying concentrations of corticosterone were added immediately after irradiation, and the cells were maintained in the drug for 6 days. On the 6th day, the cells were incubated in serum-free medium with or without corticosterone, the conditioned medium was collected 24 h later, and the medium was assayed for IL-6 by ELISA. […] The ability of corticosterone to suppress IL-6 secretion by senescent cells was not peculiar to HCA2 cells.

IL-6 [2] = test: IL-6 ELISA, HCA2 cells induced to senesce by oncogenic RAS or MKK6 overexpression; format: cell-based, human; conditions: 500 nM corticosterone, 100 nM cortisol, 6 days
Protocol: (FIG. 12A) Senescent X-irradiated with 10 Gy (Sen (XRA)) HCA2 fibroblasts were incubated in medium plus 10% serum containing the indicated concentrations of corticosterone or the highest concentration of DMSO (vehicle control). The cells were given corticosterone or DMSO immediately after irradiation and analyzed 6 days later. The cells were washed and incubated in serum-free medium without corticosterone to generate conditioned media. Conditioned media from pre-senescent (Pre) and control or corticosterone-treated Sen (XRA) cells were analyzed by ELISA for IL-6. (FIG. 12B) Cells were treated, and conditioned media were generated and analyzed as described in (FIG. 12A) except cortisol was used at the indicated concentrations. (FIG. 12C) Conditioned media were collected from presenescent (PRE) or senescent (XRA) cells that were treated with DMSO, corticosterone ([…]), or cortisol (100 nM) as described in (FIG. 12A). The conditioned media were analyzed by antibody arrays. Average signal from PRE and XRA DMSO cells was used as the baseline. Signals higher than baseline are light gray (see +1 on scale to right); signals lower than baseline are dark gray as illustrated by PRE DMSO (see −1 on scale at right). […]
Conditioned media were filtered and stored at −80° C. Cell numbers were determined in every experiment. […] Data were normalized and expressed as pg/ml/cell/24 h.

C[C@]12C[C@H](O)[C@H]3[C@@H](CCC4=CC(=O)CC[C@@]43C)[C@@H]1CC[C@@H]2C(=O)CO [corticosterone]
NF-κB DNA binding (NF-κB): significantly decreased | ATP levels (HCA2 human fibroblasts): without altering ATP levels | reduction of IL-6 secretion (IL-6 [1]; 20 nM corticosterone): approximately 50% | maximal suppression of IL-6 secretion (IL-6 [1]; 500 nM corticosterone): > 90% | IL-6 secretion, continuous exposure (IL-6 [1]; 500 nM, continuous exposure for 7 days after irradiation): strongly suppressed IL-6 secretion | IL-6 secretion, short exposure (IL-6 [1]; 500 nM, pretreatment before X-irradiation, or only 24 hours immediately after irradiation or after establishment of the SASP (7 days)): had no effect on IL-6 secretion | IL-6 secretion, varying concentrations (IL-6 [1]): decreased IL-6 secretion in a dose-dependent manner | suppression of senescence-associated IL-6 secretion (IL-6 [2]): effective

C[C@]12CCC(=O)C=C1CC[C@@H]1[C@@H]2[C@@H](O)C[C@@]2(C)[C@H]1CC[C@]2(O)C(=O)CO [cortisol]
NF-κB DNA binding (NF-κB): significantly decreased | ATP levels (HCA2 human fibroblasts): without altering ATP levels | reduction of senescence-associated IL-6 secretion (IL-6 [1]; 100 nM cortisol): > 90% | IC50 (IL-6 [1]; Homo sapiens, HCA2, sub-nM concentrations, read-out: concentration reducing senescence-associated IL-6 secretion by 50%): 0.16 to 0.8 nM | IL-6 secretion, varying concentrations (IL-6 [1]): decreased IL-6 secretion in a dose-dependent manner, and was more potent than corticosterone | suppression of senescence-associated IL-6 secretion (IL-6 [2]): effective
